Values after ≈ are worked out from the molar mass of the structure shown. Where two headings read alike, the source gives them in different places.
What was measured:
[1] = test system: MRSA (methicillin resistance Staphylococcus aureus) strains; assay: MIC50/MIC90 against a collection of genotypically characterized S. aureus isolates; assay type: cell-based
Protocol: (§1) The antibacterial activity of MF-BA-1768α1 and MF-BA-1768β1 were determined against a spectrum of bacterial strains using a broth microdilution assay performed as recommended by the NCCLS (NCCLS Document M7-A4, Vol 17 No.2). With the exception of Streptococci spp. and H. influenzae, the assay was performed in Cation Adjusted Mueller-Hinton Broth (CAMHB). For the Streptococci spp., CAMHB+2-5% Laked Horse Blood (REMEL) was used. For H. influenzae, Haemophilus Test Medium (REMEL) containing 2% Fildes Enrichment was used. The final bacterial inoculum was 5×10^5 CFU/ml in a final assay volume of 100 μl. Microtiter plates containing the test samples and the respective bacterial inoculum were incubated for 24 hours at 35° C. with the exception of E. coli plates, which were incubated for 20 hours at 35° C. Upon completion of incubation, the plates were read using a microtiter plate reader (Molecular Devices) at 650 nm as well as by visual observation using a microtiter plate reading mirror. […]
(§2) The antibacterial activity of MF-BA-1768β1 was further evaluated side-by-side with 9 reference antibiotics against a collection of genotypically well-characterized isolates of Staphylococcus aureus. These included 64 MRSA (methicillin resistance Staphylococcus aureus) strains and 19 MSSA (methicillin sensitive Staphylococcus aureus) strains representing 57 staphylococcal protein A genotypes and 22 coagulase A genotypes. The most common protein A genotypes found in the USA were represented by more than one isolate.

[2] = test system: MSSA (methicillin sensitive Staphylococcus aureus) strains; assay: as above; assay type: cell-based
Protocol: as §1, §2

[3] = Staphylococcus aureus, MRSA (64 strains), read-out: MIC50
[4] = Staphylococcus aureus, MRSA (64 strains), read-out: MIC90
[5] = Staphylococcus aureus, MSSA (19 strains), read-out: MIC50
[6] = Staphylococcus aureus, MSSA (19 strains), read-out: MIC90

| Compound | MIC50 [1, 3] | MIC90 [1, 4] | MIC50 [2, 5] | MIC90 [2, 6] | further results |
| --- | --- | --- | --- | --- | --- |
| CO/N=C(\C(=O)N[C@@H]1C(=O)N2C(C(=O)O)=C(COC(C)=O)CS[C@H]12)c1csc(N)n1 [Cefotaxime] | 512 µg/mL (≈ 1120 µM) | > 512 µg/mL | 2 µg/mL (≈ 4.39 µM) | 256 µg/mL (≈ 562 µM) | – |
| C[C@@H](O)[C@H]1C(=O)N2C(C(=O)O)=C(SCCN=CN)C[C@H]12 [Imipenem] | 8 µg/mL (≈ 26.7 µM) | 128 µg/mL (≈ 428 µM) | ≤ 0.5 µg/mL | 4 µg/mL (≈ 13.4 µM) | – |
| CCOc1ccc2ccccc2c1C(=O)N[C@@H]1C(=O)N2[C@@H]1SC(C)(C)[C@@H]2C(=O)O [Nafcillin] | 64 µg/mL (≈ 154 µM) | 256 µg/mL (≈ 618 µM) | ≤ 1 µg/mL | 16 µg/mL (≈ 38.6 µM) | – |
| CC1COc2c(N3CCN(C)CC3)c(F)cc3c(=O)c(C(=O)O)cn1c23 (stereo not drawn) [Ofloxacin] | 0.5 µg/mL (≈ 1.38 µM) | 32 µg/mL (≈ 88.6 µM) | 0.5 µg/mL (≈ 1.38 µM) | 32 µg/mL (≈ 88.6 µM) | – |
| Cc1onc(-c2ccccc2)c1C(=O)N[C@@H]1C(=O)N2[C@@H]1SC(C)(C)[C@@H]2C(=O)O [Oxacillin] | 128 µg/mL (≈ 319 µM) | 512 µg/mL (≈ 1280 µM) | ≤ 1 µg/mL | 64 µg/mL (≈ 159 µM) | – |
| CO[C@H]1/C=C/O[C@@]2(C)Oc3c(C)c(O)c4c(O)c(c(/C=N/N5CCN(C)CC5)c(O)c4c3C2=O)NC(=O)/C(C)=C\C=C\[C@H](C)[C@H](O)[C@@H](C)[C@@H](O)[C@@H](C)[C@H](OC(C)=O)[C@@H]1C [Rifampicin] | ≤ 0.0625 µg/mL | > 32 µg/mL | ≤ 0.0625 µg/mL | ≤ 0.0625 µg/mL | – |
| CN(C)[C@@H]1C(O)=C(C(N)=O)C(=O)[C@@]2(O)C(O)=C3C(=O)c4c(O)cccc4[C@@](C)(O)[C@H]3C[C@@H]12 [Tetracycline] | 0.25 µg/mL (≈ 0.563 µM) | > 32 µg/mL | 0.25 µg/mL (≈ 0.563 µM) | 32 µg/mL (≈ 72 µM) | – |
| CN[C@H](CC(C)C)C(=O)N[C@H]1C(=O)N[C@@H](CC(N)=O)C(=O)N[C@H]2C(=O)N[C@H]3C(=O)N[C@H](C(=O)N[C@H](C(=O)O)c4cc(O)cc(O)c4-c4cc3ccc4O)[C@H](O)c3ccc(c(Cl)c3)Oc3cc2cc(c3O[C@@H]2O[C@H](CO)[C@@H](O)[C@H](O)[C@H]2O[C@H]2C[C@](C)(N)[C@H](O)[C@H](C)O2)Oc2ccc(cc2Cl)[C@H]1O [Vancomycin] | – | – | – | – | MIC50 ([1]; Staphylococcus aureus, MRSA): 0.5 µg/mL (≈ 0.345 µM); MIC90 ([1]; Staphylococcus aureus, MRSA): 1 µg/mL (≈ 0.69 µM); MIC50 ([2]; Staphylococcus aureus, MSSA): 0.5 µg/mL (≈ 0.345 µM); MIC90 ([2]; Staphylococcus aureus, MSSA): 1 µg/mL (≈ 0.69 µM) |
| Gentamicin | – | – | – | – | MIC50 ([1]; MRSA (64 strains)): 1 µg/mL; MIC90 ([1]; MRSA (64 strains)): >32 µg/mL; MIC50 ([2]; MSSA (19 strains)): 0.5 µg/mL; MIC90 ([2]; MSSA (19 strains)): 32 µg/mL |

From US6551591B1, “Antibiotics from microbispora” (priority 2001, dated 2003)
